The subject of data set [1] is murine BMDMs. The format is cell-based, mouse. The procedure: FIG. 2: Peptide titration on BMDM and BMDCs for cytotoxicity and expression of cell markers. Mouse BMDM (A, C, E, G) and BMDCs (B, D, F, H) were cultured for 6 days with […]. Different concentrations were added at day 6 (A, B, E, F) or the cells were primed with different concentrations peptides at day 1-2 (C, D, G, H). At day 7, cell viability was tested using WST-1 reagent, with no-peptide-control set to 100% viability (A-D) and cells were analyzed by flowcytometry for cell marker expression (E-H). Results are depicted as mean +/−S.E.M. (n=3).
Bone marrow cells, isolated from the femur and tibia of both hindlegs, were stored in FCS/10% DMSO in liquid nitrogen. Cells were grown at a concentration of 5×10^5 cells mL^−1 in RPMI-1640 without phenol red (Thermo Fisher Scientific, MA, USA) supplemented with 10% fetal calf serum (FCS) (Corning, NY, USA) and 1% Penicillin/streptomycin (Thermo Fisher Scientific). […] Cells were stained with antibodies (table 1) for 20 minutes, washed and measured using the BD FACSCanto-II (BD bioscience) and analyzed with FlowJo software (Ashland, OR, USA).
WST-1 reagent (roche) was used for cell viability of BMDCs and BMDM as well as for cell activity of activated splenocytes. […] After 30-60 minutes, colorimetric changes were measured at 450 nm using a FLUOstar Omega microplate reader (BMG Labtech GmbH, Ortenberg, Germany). […]

Data set [2] deals with murine macrophage cell-line. Conditions: biological form of CATH2; cited from earlier work.
Data set [3] concerns 4 different S. suis serotype 2 strains. Kind of data set: Colony count assay (MBC), summary over the four strains. Conditions: four sub-strains, RPMI+10% FCS medium. The format is cell-based, Streptococcus suis. The procedure:
FIG. 1: D-CATH2 and its derivatives efficiently kills several S. suis type2 strains in both THB and RPMI+FCS. Antibacterial activity of D-CATH2 and its derivatives against 10^6 CFU ml^−1 S. suis type 2 strains (P1/7, D282, 5735, and OV625) was tested using a colony count assay in both THB medium (A) and RPMI+FCS (B). 2 log CFU mL^−1 was set as detection limit for the experiment. Data is plotted as average +/−SEM (N=3-4).
S. suis Serotype 2 strains P1/7, D282, S735, and OV625 were grown into mid-logarithmic phase for 3-4 hours at 37° C. in THB, after which bacteria were centrifuged at 1200×g for 10 minutes at 4° C. and resuspended in fresh THB. Concentration was determined by measuring the OD value at 620 nm with an OD of 0.1 is 1×10^8 colony forming units (CFU) mL^−1. 10^6 CFU mL^−1 S suis was mixed with different concentrations of D-CATH and derivatives (0.63−40 μM) and left for 3 hours at 37° C. Ten-fold dilutions were prepared and spread in Tryptan Soy agar (TSA) plates containing 5% (vol/vol) defibrinated sheep blood (Oxoid) and colonies were allowed to grow for 48 hours. Minimal Bactericidal Concentration (MBC) was defined as ≤100 CFU mL^−1 (2 logCFU mL^−1), the detection limit of the assay.

Data set [4] is described as follows: Isothermal titration calorimetry (ITC) of peptide binding to LTA-SA. Further details: species or system S. aureus. The settings on record: 200 μM peptide titrated into LTA-SA, 37° C., dPBS; read-out: Kd (dissociation coefficient). The procedure: Thermodynamic binding capacity of 200 μM D-CATH2 (A), DC(1-21) (B), and DC(4-21) (C) to 200 μM LTA-SA was measured using isothermal titration calorimetry (ITC). Every 300 seconds, 1.99 μl peptide solution was titrated into 164 μl LTA solution. The corrected heat rate (μJ sec^−1) is plotted (top panel) and normalized integrated heat was plotted against the molar ratio between LTA and the peptide (lower panel). Experiments (N=3) were averaged before plotting and fitting an independent model. The corrected heat rate of D-CATH2, DC(1-21), and DC(4-21) is depicted for comparison (D).
The interaction between the D-CATH2 peptides and LTA-SA was tested using isothermal titration calorimetry (ITC). All ITC experiments were performed on a Low Volume NanoITC (TA instruments-Waters LLC, New Castle, USA). 800 μM of LTA-SA or peptide solution was prepared in MilliQ after which a 4-fold dilution in dPBS (Gibco) was made. The chamber was filled with 164 μl LTA-SA and the peptide was loaded in the syringe. Every 300 seconds, 1.99 μL peptide was titrated into the chamber at 37° C. Data was analyzed using the Nano Analyze software (TA instruments-Waters LLC). The data of three experiments was averaged and an independent model was used to determine the peptide-LTA interaction.
(Isothermal titration calorimetry measures the heat released or taken up as one component is titrated into another.)

Converted amounts (≈) assume the structure as drawn. Where a SMILES comes first, the peptide text is derived from it. [ ]: non-standard residue; d: D form.

A word on the MBC: it is the smallest concentration meeting the test's criterion for killing. Broadly, the Kd is the constant that tells how readily two partners part at equilibrium.

For the molecule `CC[C@@H](C)[C@@H](NC(=O)[C@@H](CCCCN)NC(=O)[C@@H](CCCNC(=N)N)NC(=O)[C@@H](CC(C)C)NC(=O)[C@@H](Cc1ccccc1)NC(=O)[C@@H](CCCNC(=N)N)NC(=O)CNC(=O)[C@@H](Cc1ccccc1)NC(=O)[C@H](N)CCCNC(=N)N)C(=O)N[C@H](CCCNC(=N)N)C(=O)N[C@H](CCCNC(=N)N)C(=O)N[C@H](Cc1ccccc1)C(=O)N[C@H](CCCNC(=N)N)C(=O)N1CCC[C@@H]1C(=O)N[C@H](CCCCN)C(=O)N[C@@H](C(=O)N[C@@H](C(=O)N[C@@H](C(=O)N[C@@H](C(=O)N[C@@H](C(=O)N[C@H](CCC(N)=O)C(N)=O)[C@H](C)CC)[C@H](C)O)[C@H](C)CC)[C@H](C)O)C(C)C` [DC(1-21)], in data set [1], the “cell viability of BMDMs” value is reported as “especially”. Same read-out and setting: the entry for `CC[C@@H](C)[C@@H](NC(=O)[C@@H](CCCCN)NC(=O)[C@@H](CCCNC(=N)N)NC(=O)[C@@H](CC(C)C)NC(=O)[C@@H](Cc1ccccc1)NC(=O)[C@@H](CCCNC(=N)N)NC(=O)CNC(=O)[C@@H](Cc1ccccc1)NC(=O)[C@H](N)CCCNC(=N)N)C(=O)N[C@H](CCCNC(=N)N)C(=O)N[C@H](CCCNC(=N)N)C(=O)N[C@H](Cc1ccccc1)C(=O)N[C@H](CCCNC(=N)N)C(=O)N1CCC[C@@H]1C(=O)N[C@H](CCCCN)C(=O)N[C@@H](C(=O)N[C@@H](C(=O)N[C@@H](C(=O)N[C@@H](C(=O)N[C@@H](C(=O)N[C@H](CCC(N)=O)C(=O)NCC(=O)N[C@H](CO)C(=O)N[C@H](C)C(=O)N[C@H](CCCNC(=N)N)C(=O)N[C@H](Cc1ccccc1)C(N)=O)[C@H](C)CC)[C@H](C)O)[C@H](C)CC)[C@H](C)O)C(C)C` [D-CATH2] is “relative sensitive”.

For “RFGRFLRKIRRFRPKVTITIQGSARFG [CATH2, chicken cathelicidin-2, 27 amino acid C-terminal peptide]”, in data set [2], the “LPS and LTA activation” value was “inhibit”. The molecule `CC[C@@H](C)[C@@H](NC(=O)[C@@H](CCCCN)NC(=O)[C@@H](CCCNC(=N)N)NC(=O)[C@@H](CC(C)C)NC(=O)[C@@H](Cc1ccccc1)NC(=O)[C@H](N)CCCNC(=N)N)C(=O)N[C@H](CCCNC(=N)N)C(=O)N[C@H](CCCNC(=N)N)C(=O)N[C@H](Cc1ccccc1)C(=O)N[C@H](CCCNC(=N)N)C(=O)N1CCC[C@@H]1C(=O)N[C@H](CCCCN)C(=O)N[C@@H](C(=O)N[C@@H](C(=O)N[C@@H](C(=O)N[C@@H](C(=O)N[C@@H](C(=O)N[C@H](CCC(N)=O)C(N)=O)[C@H](C)CC)[C@H](C)O)[C@H](C)CC)[C@H](C)O)C(C)C` [DC(4-21), RFLRKIRRFRPKVTITIQ-NH2] (H-[dR][dF][dL][dR][dK][dI][dR][dR][dF][dR][dP][dK][dV][dT][dI][dT][dI][dQ]-NH2; N-terminus assumed) showed an MBC in data set [3] of 2.5 µM (≈ 5.82 µg/mL). Moreover, the Kd in data set [4] was found to be 2.12 µM.

Source of the values: patent publication US20240165200A1, “CATH2 AND DERIVATIVES FOR INHIBITING STREPTOCOCCUS SUIS” (Universiteit Utrecht Holding B.V., priority 2021, published 2024).
